{
  "source": "ChEMBL document CHEMBL1136460",
  "about": "“Novel oxazolidinone-quinolone hybrid antimicrobials” (Bioorg Med Chem Lett, 2003)",
  "key": {"Haemophilus influenzae": {"system": "Haemophilus influenzae", "test": "Antibacterial activity against Haemophilus influenzae (HI1008)", "assay_type": "functional"}, "Moraxella catarrhalis": {"system": "Moraxella catarrhalis", "test": "Antibacterial activity against Moraxella catarrhalis (MC1002)", "assay_type": "functional"}},
  "data": [
    {"smiles": "O=C(O)c1cn(C2CC2)c2cc(N3CCNCC3)c(F)cc2c1=O", "note": "[CIPROFLOXACIN]", "values": [
      {"measurement": "MIC", "setting": "Haemophilus influenzae", "value": "≤ 0.06", "unit": "µg/mL"},
      {"measurement": "MIC", "setting": "Moraxella catarrhalis", "value": 0.03, "unit": "µg/mL"}
    ]}
  ]
}
